# According to patent publication US20230116196A1, “METHOD OF TREATING CNS DISORDERS WITH NEU[…] GABAERGIC COMPOUNDS” (priority 2017, published 2023):
# What was measured:
# [1] = tested on: dentate gyrus granule cells (DGGCs); experiment: Acute NAS exposure: phasic currents (sIPSCs) in DGGCs of hippocampal slices; type: cell-based, mouse; settings: for mean sIPSC amplitude before versus during exposure / mean sIPSC decay time in the presence of NAS: 100 nM acute; for sIPSC Amplitude / sIPSC Decay / sIPSC Frequency: during acute 100 nM exposure
# Procedure: (§1) Brain slices were prepared from 3- to 5-week-old male C57 mice. Mice were anesthetized with isoflurane, decapitated, and brains were rapidly removed and submerged in ice-cold cutting solution containing (mM): 126 NaCl, 2.5 KCl, 0.5 CaCl2, 2 MgCl2, 26 NaHCO3, 1.25 NaH2PO4, 10 glucose, 1.5 sodium pyruvate, and 3 kynurenic acid. Coronal 310 μm thick slices were cut with the vibratome VT1000S (Leica Microsystems, St Louis, Mo., USA). The slices were then transferred into incubation chamber filled with prewarmed (31-32° C.) oxygenated artificial cerebro-spinal fluid (ACSF) of the following composition (in mM): 126 NaCl, 2.5 KCl, 2 CaCl2, 2 MgCl2, 26 NaHCO3, 1.25 NaH2PO4, 10 glucose, 1.5 sodium pyruvate, 1 glutamine, 3 kynurenic acid and 0.005 GABA bubbled with 95% O2-5% CO2. Slices were allowed to recover at 32° C. for at least 1 hr before recording. Exogenous GABA was added in an attempt to standardize ambient GABA in the slice and provide an agonist source for newly inserted extrasynaptic GABAARs.
# (§2) After recovery, a single slice was transferred to a submerged, dual perfusion recording chamber (Warner Instruments, Hamden, Conn., USA) on the stage of an upright microscope (Nikon FN-1) with a 40× water immersion objective equipped with DIC/IR optics. Slices were maintained at 32° C. and gravity-superfused with ACSF solution throughout experimentation and perfused at rate of 2 ml/min with oxygenated (O2/CO2 95/5%) ACSF.
# (§3) Whole-cell currents were recorded from the dentate gyrus granule cells (DGGCs) in 310-μm-thick coronal hippocampal slices. Patch pipettes (5-7MΩ) were pulled from borosilicate glass (World Precision Instruments) and filled with intracellular solution of the composition (in mM) as follows: 140 CsCl, 1 MgCl2, 0.1 EGTA, 10 HEPES, 2 Mg-ATP, 4 NaCl and 0.3 Na-GTP (pH=7.2 with CsOH). A 5 min period for stabilization after obtaining the whole-cell recording conformation (holding potential of −60 mV) was allowed before currents were recorded using an Axopatch 200B amplifier (Molecular Devices), low-pass filtered at 2 kHz, digitized at 20 kHz (Digidata 1440A; Molecular Devices), and stored for offline analysis.
# For tonic current measurements, an all-points histogram was plotted for a 10 s period before and during 100 μM picrotoxin application, once the response reached a plateau level. Recordings with unstable baselines were discarded. Fitting the histogram with a Gaussian distribution gave the mean baseline current amplitude and the difference between the amplitudes before and during picrotoxin was considered to be the tonic current. The negative section of the all-points histogram which corresponds to the inward IPSCs was not fitted with a Gaussian distribution (Kretschmannova et al., 2013; Nusser and Mody, 2002). Series resistance and whole-cell capacitance were continually monitored and compensated throughout the course of the experiment. Recordings were eliminated from data analysis if series resistance increased by >20%. Spontaneous inhibitory post-synaptic currents (sIPSCs) were analyzed using the mini-analysis software (version 5.6.4; Synaptosoft, Decatur, Ga.). Minimum threshold detection was set to 3 times the value of baseline noise signal. To assess sIPSC kinetics, the recording trace was visually inspected and only events with a stable baseline, sharp rising phase, and single peak were used to negate artifacts due to event summation. Only recordings with a minimum of 200 events fitting these criteria were analyzed. sIPSCs amplitude, and frequency from each experimental condition was pooled and expressed as mean±SEM. To measure sIPSC decay, 100 consecutive events were averaged and the decay was fitted to a double exponential and the weighted decay constant (tw) was determined. Statistical analysis was performed by using Student t-test (paired and unpaired where appropriate), where p<0.05 is considered significant. […]
# [2] = tested on: dentate gyrus granule cells (DGGCs); type: cell-based, mouse; settings: for tonic current after exposure and washout: 30-60 min wash, vehicle control 43.9±5.7 pA; for concentration dependence of tonic current after exposure and washout: maximal effects at 1 μM; for tonic current versus vehicle treated slices with PKC inhibitor GFX: GFX 50 μM 15 min, then co-exposure 15 min, ≥30 min washout
# Procedure: as §1, §2, §3
# For tonic current measurements, an all-points histogram was plotted for a 10 s period before and during 100 μM picrotoxin application, once the response reached a plateau level. Recordings with unstable baselines were discarded. Fitting the histogram with a Gaussian distribution gave the mean baseline current amplitude and the difference between the amplitudes before and during picrotoxin was considered to be the tonic current. The negative section of the all-points histogram which corresponds to the inward IPSCs was not fitted with a Gaussian distribution (Kretschmannova et al., 2013; Nusser and Mody, 2002). Series resistance and whole-cell capacitance were continually monitored and compensated throughout the course of the experiment. Recordings were eliminated from data analysis if series resistance increased by >20%. Spontaneous inhibitory post-synaptic currents (sIPSCs) were analyzed using the mini-analysis software (version 5.6.4; Synaptosoft, Decatur, Ga.). Minimum threshold detection was set to 3 times the value of baseline noise signal. To assess sIPSC kinetics, the recording trace was visually inspected and only events with a stable baseline, sharp rising phase, and single peak were used to negate artifacts due to event summation. Only recordings with a minimum of 200 events fitting these criteria were analyzed. sIPSCs amplitude, and frequency from each experimental condition was pooled and expressed as mean±SEM. To measure sIPSC decay, 100 consecutive events were averaged and the decay was fitted to a double exponential and the weighted decay constant (tw) was determined. Statistical analysis was performed by using Student t-test (paired and unpaired where appropriate), where p<0.05 is considered significant.
# [3] = tested on: dentate gyrus granule cells (DGGCs); experiment: Acute NAS exposure: tonic current in DGGCs of hippocampal slices; type: cell-based, mouse; settings: 100 nM, 10 min acute exposure; mean±SEM
# Procedure: as §1, with “GABAARs. […]” for “GABAARs.”
# Whole-cell currents were recorded from the dentate gyrus granule cells (DGGCs) in 310-μm-thick coronal hippocampal slices. […] A 5 min period for stabilization after obtaining the whole-cell recording conformation (holding potential of −60 mV) was allowed before currents were recorded using an Axopatch 200B amplifier (Molecular Devices), low-pass filtered at 2 kHz, digitized at 20 kHz (Digidata 1440A; Molecular Devices), and stored for offline analysis.
# For tonic current measurements, an all-points histogram was plotted for a 10 s period before and during 100 μM picrotoxin application, once the response reached a plateau level. […] Series resistance and whole-cell capacitance were continually monitored and compensated throughout the course of the experiment. […] Spontaneous inhibitory post-synaptic currents (sIPSCs) were analyzed using the mini-analysis software (version 5.6.4; Synaptosoft, Decatur, Ga.). […] Only recordings with a minimum of 200 events fitting these criteria were analyzed. sIPSCs amplitude, and frequency from each experimental condition was pooled and expressed as mean±SEM. […]
# [4] = tested on: GABA receptor trafficking; experiment: GABA receptor trafficking measured by GABAergic current density; type: cell-based
# From the text: As shown in above examples, not all neurosteroids can modulate GABA receptor trafficking.
Compound,mean sIPSC amplitude before versus during exposure [1],mean sIPSC decay time in the presence of NAS [1],sIPSC Amplitude [1],sIPSC Decay [1],sIPSC Frequency [1],"tonic current after 100 nM exposure and washout, WT slices [2]","tonic current after exposure and washout ([2]; 1 μM, 15 min incubation)","concentration dependence of tonic current after exposure and washout ([2]; 15 min incubation, wash)",tonic current versus vehicle treated slices with PKC inhibitor GFX [2],tonic current during acute exposure [3],modulation of GABA receptor trafficking [4],"magnitude of tonic current versus control ([2]; 1 μM, 15 min incubation, wash)"
"CC(=O)[C@H]1CC[C@H]2[C@@H]3CC[C@H]4C[C@H](O)CC[C@]4(C)[C@H]3CC[C@]12C [ALLO, Allopregnanolone]",no significant difference,significantly increased,39.1 pA,19.2 ms,3.4 Hz,significant increase,95.8±10.8 pA,concentration-dependent increase,no significant difference,58.3±13.0 pA,modulated,–
CC(=O)[C@H]1CC[C@H]2[C@@H]3CC[C@H]4C[C@](C)(O)CC[C@]4(C)[C@H]3CC[C@]12C [Ganaxolone],no significant difference,significantly increased,55.1 pA,23.8 ms,5.6 Hz,–,57.4±6.3 pA,–,–,78.8±23.2 pA,did not modulate,did not significantly alter
C[C@@]1(O)CC[C@@]2(C)[C@H](CC[C@@H]3[C@@H]2CC[C@]2(C)[C@@H](C(=O)Cn4nccn4)CC[C@@H]32)C1 [SGE-516],no significant difference,significantly increased,52.9 pA,15.1 ms,4.6 Hz,significant increased,123.0±22.2 pA,concentration-dependent increase,no significant difference,49.2±8.9 pA,modulated,–
